According to patent US20220323406A1, “METHODS AND COMPOSITIONS FOR DIFFERENTIATING STEM CELLS” (Massachusetts Institute of Technology, priority 2019, published 2022):
Where a name gives a salt, the structure may show the parent alone.

What was measured:
ENR+CD organoids = assay: Primary screen: ATP (CellTiter-Glo 3D, CTG) cell number/viability, 2.5-D 384-well ENR+CD organoids; settings: primary screen; for Z.CTG: standard z score;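 for all read-outs here: compounds given at plating and again on day 3 over a 6-day differentiation from ENR+CV stem-cell-enriched precursors, ATP measured on day 6, plate median as control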
[1] = system: ENR+CD organoids (ISC to Paneth cell differentiation); assay: Primary screen: basal (non-stimulated) lysozyme secretion LYZ.NS, 2.5-D 384-well ENR+CD organoid differentiation; type: cell-based, mouse; settings: primary screen; for Z.LYZ.NS: standard z score
Excerpt: (§1) High-throughput screening.

[2] = system: ENR+CD organoids (ISC to Paneth cell differentiation); assay: Primary screen: CCh-stimulated lysozyme secretion LYZ.S, 2.5-D 384-well ENR+CD organoid differentiation; type: cell-based, mouse; settings: primary screen
Excerpt: as §1

SMILES | Dose.FC.CTG (log2 fold change) (ENR+CD organoids; dose 0.08 uM) | Z.CTG (standard z score) (ENR+CD organoids; dose 0.08 uM) | Dose.FC.CTG (log2 fold change) (ENR+CD organoids; dose 0.40 uM) | Z.CTG (standard z score) (ENR+CD organoids; dose 0.40 uM) | Dose.FC.CTG (log2 fold change) (ENR+CD organoids; dose 2.00 uM) | Z.CTG (standard z score) (ENR+CD organoids; dose 2.00 uM) | Dose.FC.CTG (log2 fold change) (ENR+CD organoids; dose 10.00 uM) | Z.CTG (standard z score) (ENR+CD organoids; dose 10.00 uM) | Dose.FC.LYZ.NS (log2 fold change) ([1]; dose 0.08 uM) | Z.LYZ.NS (standard z score) ([1]; dose 0.08 uM) | Dose.FC.LYZ.NS (log2 fold change) ([1]; dose 0.40 uM) | Z.LYZ.NS (standard z score) ([1]; dose 0.40 uM) | Dose.FC.LYZ.NS (log2 fold change) ([1]; dose 2.00 uM) | Z.LYZ.NS (standard z score) ([1]; dose 2.00 uM) | Dose.FC.LYZ.NS (log2 fold change) ([1]; dose 10.00 uM) | Z.LYZ.NS (standard z score) ([1]; dose 10.00 uM) | Dose.FC.LYZ.S (log2 fold change) ([2]; dose 0.08 uM) | Dose.FC.LYZ.S (log2 fold change) ([2]; dose 0.40 uM) | Dose.FC.LYZ.S (log2 fold change) ([2]; dose 2.00 uM) | Dose.FC.LYZ.S (log2 fold change) ([2]; dose 10.00 uM) | further results
O=C(Nc1ccccc1)c1cc([N+](=O)[O-])ccc1Cl [GW9662] | 0.115 | 0.274 | 0.041 | 0.098 | 0.212 | 0.508 | 0.133 | 0.318 | 0.035 | 0.305 | 0.098 | 0.852 | 0.046 | 0.400 | 0.030 | 0.264 | 0.036 | 0.080 | 0.093 | 0.020 | 
Cn1cc(/C=C2\C(=O)Nc3cccnc32)c2ccccc21 [GW441756] | 0.048 | 0.114 | −0.105 | −0.252 | 0.152 | 0.364 | −0.113 | −0.270 | 0.046 | 0.399 | 0.061 | 0.529 | 0.117 | 1.023 | 0.088 | 0.763 | 0.075 | 0.196 | 0.125 | 0.071 | 
CC(C)c1cc(-c2n[nH]c(=O)n2-c2ccc3c(ccn3C)c2)c(O)cc1O [Ganetespib (STA-9090)] |  |  |  |  |  |  |  |  |  |  |  |  |  |  |  |  |  |  |  |  | Dose.FC.CTG (ENR+CD organoids; dose 0.08 uM): −1.450 log2 fold change; Dose.FC.CTG (ENR+CD organoids; dose 0.40 uM): −2.105 log2 fold change; Dose.FC.CTG (ENR+CD organoids; dose 2.00 uM): −1.721 log2 fold change; Dose.FC.CTG (ENR+CD organoids; dose 10.00 uM): −1.620 log2 fold change; Z.CTG (ENR+CD organoids; dose 0.08 uM): −3.465; Z.CTG (ENR+CD organoids; dose 0.40 uM): −5.027; Z.CTG (ENR+CD organoids; dose 2.00 uM): −4.110; Z.CTG (ENR+CD organoids; dose 10.00 uM): −3.871; Dose.FC.LYZ.NS ([1]; dose 0.08 uM): −0.141 log2 fold change; Dose.FC.LYZ.NS ([1]; dose 0.40 uM): −0.155 log2 fold change; Dose.FC.LYZ.NS ([1]; dose 2.00 uM): −0.150 log2 fold change; Dose.FC.LYZ.NS ([1]; dose 10.00 uM): −0.136 log2 fold change; Z.LYZ.NS ([1]; dose 0.08 uM): −1.226; Z.LYZ.NS ([1]; dose 0.40 uM): −1.345; Z.LYZ.NS ([1]; dose 2.00 uM): −1.309; Z.LYZ.NS ([1]; dose 10.00 uM): −1.181; Dose.FC.LYZ.S ([2]; dose 0.08 uM): −0.260 log2 fold change; Dose.FC.LYZ.S ([2]; dose 0.40 uM): −0.250 log2 fold change; Dose.FC.LYZ.S ([2]; dose 2.00 uM): −0.260 log2 fold change; Dose.FC.LYZ.S ([2]; dose 10.00 uM): −0.267 log2 fold change
C[C@@H]1C(=O)O[C@H]2C[C@@]34[C@H]5C[C@@H](C(C)(C)C)[C@]36[C@@H](OC(=O)[C@@H]6O)O[C@@]4(C(=O)O5)[C@]21O [Ginkgolide A] |  |  |  |  |  |  |  |  |  |  |  |  |  |  |  |  |  |  |  |  | Dose.FC.CTG (ENR+CD organoids; dose 0.08 uM): 0.005 log2 fold change; Dose.FC.CTG (ENR+CD organoids; dose 0.40 uM): −0.017 log2 fold change; Dose.FC.CTG (ENR+CD organoids; dose 2.00 uM): 0.040 log2 fold change; Dose.FC.CTG (ENR+CD organoids; dose 10.00 uM): −0.012 log2 fold change; Z.CTG (ENR+CD organoids; dose 0.08 uM): 0.011; Z.CTG (ENR+CD organoids; dose 0.40 uM): −0.040; Z.CTG (ENR+CD organoids; dose 2.00 uM): 0.095; Z.CTG (ENR+CD organoids; dose 10.00 uM): −0.028; Dose.FC.LYZ.NS ([1]; dose 0.08 uM): 0.045 log2 fold change; Dose.FC.LYZ.NS ([1]; dose 0.40 uM): 0.025 log2 fold change; Dose.FC.LYZ.NS ([1]; dose 2.00 uM): 0.030 log2 fold change; Dose.FC.LYZ.NS ([1]; dose 10.00 uM): 0.052 log2 fold change; Z.LYZ.NS ([1]; dose 0.08 uM): 0.395; Z.LYZ.NS ([1]; dose 0.40 uM): 0.222; Z.LYZ.NS ([1]; dose 2.00 uM): 0.258; Z.LYZ.NS ([1]; dose 10.00 uM): 0.450; Dose.FC.LYZ.S ([2]; dose 0.08 uM): 0.124 log2 fold change; Dose.FC.LYZ.S ([2]; dose 0.40 uM): 0.161 log2 fold change; Dose.FC.LYZ.S ([2]; dose 2.00 uM): 0.002 log2 fold change; Dose.FC.LYZ.S ([2]; dose 10.00 uM): −0.028 log2 fold change
CC1C(=O)OC2C(O)C34C5CC(C(C)(C)C)C36C(OC(=O)C6O)OC4(C(=O)O5)C12O (stereo not shown) [Ginkgolide B] |  |  |  |  |  |  |  |  |  |  |  |  |  |  |  |  |  |  |  |  | Dose.FC.CTG (ENR+CD organoids; dose 0.08 uM): −0.076 log2 fold change; Dose.FC.CTG (ENR+CD organoids; dose 0.40 uM): 0.034 log2 fold change; Dose.FC.CTG (ENR+CD organoids; dose 2.00 uM): −0.154 log2 fold change; Dose.FC.CTG (ENR+CD organoids; dose 10.00 uM): 0.177 log2 fold change; Z.CTG (ENR+CD organoids; dose 0.08 uM): −0.182; Z.CTG (ENR+CD organoids; dose 0.40 uM): 0.081; Z.CTG (ENR+CD organoids; dose 2.00 uM): −0.369; Z.CTG (ENR+CD organoids; dose 10.00 uM): 0.422; Dose.FC.LYZ.NS ([1]; dose 0.08 uM): 0.041 log2 fold change; Dose.FC.LYZ.NS ([1]; dose 0.40 uM): 0.109 log2 fold change; Dose.FC.LYZ.NS ([1]; dose 2.00 uM): 0.061 log2 fold change; Dose.FC.LYZ.NS ([1]; dose 10.00 uM): −0.037 log2 fold change; Z.LYZ.NS ([1]; dose 0.08 uM): 0.353; Z.LYZ.NS ([1]; dose 0.40 uM): 0.950; Z.LYZ.NS ([1]; dose 2.00 uM): 0.528; Z.LYZ.NS ([1]; dose 10.00 uM): −0.326; Dose.FC.LYZ.S ([2]; dose 0.08 uM): 0.034 log2 fold change; Dose.FC.LYZ.S ([2]; dose 0.40 uM): 0.047 log2 fold change; Dose.FC.LYZ.S ([2]; dose 2.00 uM): 0.033 log2 fold change; Dose.FC.LYZ.S ([2]; dose 10.00 uM): −0.035 log2 fold change
Cc1ccc(S(=O)(=O)NC(=O)NN2CC3CCCC3C2)cc1 (stereo not shown) [Gliclazide] |  |  |  |  |  |  | −0.092 |  |  |  |  |  |  |  | −0.035 | −0.303 |  |  |  | −0.060 | Dose.FC.CTG (ENR+CD organoids; dose 0.08 uM): 0.162 log2 fold change; Dose.FC.CTG (ENR+CD organoids; dose 0.40 uM): 0.054 log2 fold change; Dose.FC.CTG (ENR+CD organoids; dose 2.00 uM): 0.008 log2 fold change; Dose.FC.LYZ.NS ([1]; dose 0.08 uM): 0.036 log2 fold change; Dose.FC.LYZ.NS ([1]; dose 0.40 uM): 0.032 log2 fold change; Dose.FC.LYZ.NS ([1]; dose 2.00 uM): 0.104 log2 fold change; Z.LYZ.NS ([1]; dose 0.08 uM): 0.313; Z.LYZ.NS ([1]; dose 0.40 uM): 0.278; Z.LYZ.NS ([1]; dose 2.00 uM): 0.909; Dose.FC.LYZ.S ([2]; dose 0.08 uM): 0.058 log2 fold change; Dose.FC.LYZ.S ([2]; dose 0.40 uM): 0.086 log2 fold change; Dose.FC.LYZ.S ([2]; dose 2.00 uM): −0.017 log2 fold change
COc1ccc2c(c1)C(=O)N(CCc1ccc(S(=O)(=O)NC(=O)NC3CCCCC3)cc1)C(=O)C2(C)C [Gliquidone] | 0.124 |  | 0.103 |  | 0.246 |  | 0.134 |  | 0.103 | 0.893 | 0.037 | 0.322 | 0.086 | 0.747 | 0.031 | 0.268 | 0.101 | 0.070 | 0.006 | −0.020 | 
COc1ccc2c(c1)c(C1=C(c3c[nH]c4ccccc34)C(=O)NC1=O)cn2CCCN(C)C [Go 6983] | 0.021 | 0.050 | −0.036 | −0.085 | 0.058 | 0.138 | −0.181 | −0.433 | −0.005 | −0.046 | 0.013 | 0.114 | 0.091 | 0.791 | −0.092 | −0.798 | 0.021 | 0.007 | −0.010 | −0.073 | 
CN1C2CCCC1CC(NC(=O)c1nn(C)c3ccccc13)C2 (stereo not shown) [Granisetron HCl] | −0.214 |  | −0.086 |  | −0.178 |  | −0.297 |  | 0.061 | 0.531 | −0.002 | −0.021 | 0.018 | 0.155 | −0.043 | −0.378 | 0.015 | 0.131 | −0.007 | −0.103 | 
Cl.Cl.O=S(=O)(NCCNC/C=C/c1ccc(Br)cc1)c1cccc2cnccc12 [H 89 2HCl] | 0.350 | 0.836 | 0.398 | 0.950 | 0.421 | 1.005 | 0.385 | 0.919 | 0.140 | 1.223 | 0.080 | 0.695 | 0.086 | 0.747 | 0.132 | 1.151 | 0.118 | 0.148 | 0.087 | 0.000 | 
CC(C)c1ccc(NC(=O)Cn2cnc3c2c(=O)n(C)c(=O)n3C)cc1 [HC-030031] | 0.082 | 0.195 | 0.191 | 0.457 | −0.008 | −0.019 | −0.241 | −0.575 | 0.063 | 0.547 | 0.033 | 0.291 | −0.007 | −0.057 | −0.047 | −0.411 | 0.090 | 0.097 | −0.035 | 0.077 | 
